As a reminder, the pKa is the negative logarithm of the acid dissociation constant. A high value points to a weaker acid or stronger base. What is called logD is the decadic logarithm of the distribution of all forms, ionised or not, between an organic phase and buffer at a given pH. High values mean higher lipophilicity, low ones lower lipophilicity.

The nature of data set [1]: physchem.
Description: Dissociation constant, pKa of the compound
Data set [2] can be described thus: physchem. Conditions: octanol/water, pH 7.4.
Description: Octanol-water distribution coefficient, log D at pH 7.4 at 25 degC by potentiometric titration method
Data set [3] is described as follows: Octanol-water distribution coefficient, log D by HPLC. Type of data set: physicochemical.

Consider `CNC(=O)c1cn2c(C)c(C)nc2c2c1CCC1(CCc3ccccc31)O2` (stereo not given), for which the pKa in the data set “physchem [1]” is 6.8. Moreover, in the data set “physchem [2]”, the logD is 3.29.

For `Cc1nc2c3c(c(C(=O)NC4CC4)cn2c1C)CCC1(CCc2ccccc21)O3` (stereo not given), in “physchem [1]”, the pKa was 6.76. The compound further registered a logD in “physchem [2]” of 3.64. As to `Cc1nc2c3c(c(C(=O)N4CCC4)cn2c1C)CCC1(CCc2ccccc21)O3` (stereo not given), the pKa in “physchem [1]” amounted to 6.81. Also, in the data set “physchem [2]”, the logD came to 3.19. In “physchem [1]”, `Cc1nc2c3c(c(C(=O)N4CCCC4)cn2c1C)CCC1(CCc2ccccc21)O3` (stereo not given) yielded a pKa of 6.88. Moreover, in “physchem [2]”, the logD is 3.36.

As for `Cc1nc2c3c(c(C(=O)N4CCCCC4)cn2c1C)CCC1(CCc2ccccc21)O3` (stereo not given), the pKa in “physchem [1]” stood at 6.81. In “physchem [2]”, this compound displayed a logD of 3.87.

`Cc1cccc2c1CCC21CCc2c(C(=O)N(C)C)cn3c(C)c(C)nc3c2O1` (stereo not given) returned a pKa in the data set “physchem [1]” of 6.87. In “physchem [2]”, this compound yielded a logD of 3.42. Regarding `Cc1nc2c3c(c(C(=O)N(C)C)cn2c1C)CCC1(CCc2cc(F)ccc21)O3` (stereo not given), the logD in data set [3] was determined as 3.

The compound `Cc1nc2c3c(c(C(=O)N4CCOCC4)cn2c1C)CCC1(CCc2ccccc21)O3` (stereo not given) showed a pKa in the data set “physchem [1]” of 6.74. In the data set “physchem [2]”, the logD is 2.85. Consider `Cc1nc2c3c(c(C(=O)N(C)C)cn2c1C)CCC1(Cc2ccccc2C1)O3`, for which, in data set [3], the log distribution coefficient (logD) is 2.9. In the data set “physchem [1]”, this compound had a pKa of 6.84. As to `Cc1nc2c3c(c(C(=O)N4CC(F)(F)C4)cn2c1C)CCC1(CCc2ccccc21)O3` (stereo not given), the pKa in the data set “physchem [1]” amounted to 6.55. In addition, the logD in the data set “physchem [2]” was determined as 3.57. In “physchem [1]”, `Cc1nc2c3c(c(C(=O)Nc4ccccc4)cn2c1C)CCC1(CCc2ccccc21)O3` (stereo not given) displayed a pKa of 6.76. In addition, in “physchem [2]”, the logD is 4.7. Take `CON(C)C(=O)c1cn2c(C)c(C)nc2c2c1CCC1(CCc3ccccc31)O2` (stereo not given): the pKa in the data set “physchem [1]” worked out at 6.63. Besides, the log distribution coefficient (logD) in the data set “physchem [2]” is 3.15.

For the compound `Cc1nc2c3c(c(C(=O)N(C)C)cn2c1C)CCC1(CCc2ccccc21)O3` (racemic), the pKa in the data set “physchem [1]” came out at 6.84. In “physchem [2]”, the logD was determined as 2.91.

Values taken from ChEMBL document CHEMBL1139287, “Spiro(imidazo[1,2-a]pyrano[2,3-c]pyridine-9-indenes) as inhibitors of gastric acid secretion” (Bioorg Med Chem, 2009).
